{
  "source": "patent US20120093946A1",
  "about": "“USE OF CARBON DIOXIDE SUPPLYING MEANS FOR MUSCLE STRENGTHENING AND METHOD OF INCREASING CATTLE MEAT THEREBY” (priority 2007, published 2012)",
  "key": {"[1]": {"test_system": "muscle strength of the quadriceps femoris and the hamstrings", "test": "Promotion of muscle strengthening by stretching exercise on isometric torque of legs, transdermal carbon dioxide absorption on treated leg", "format": "in vivo, human", "source_text": "Eight subjects including two subjects who played sports three times or more a week (hereinafter, referred to as “athlete”) and six subjects who played sports two times or less a week (hereinafter, referred to as “non-athlete”) participated in the experiment. Each subject did warming-up by pedaling a gym bicycle for ten minutes. Next, each subject did a stretching exercise on isometric torque of the quadriceps femoris 300 times or more by using training machine MyoretRZ-450 (Kawasaki Heavy Industries, Ltd.). Thus, an exercise load was applied to the quadriceps femoris. Then, the muscle strength of the quadriceps femoris and the muscle strength of the hamstrings to which an exercise load was not applied were measured by using MyoretRZ-450.\nAfter the training was completed, the carbon dioxide absorption aid 4 described in Example 5 in Patent Document 7 (Japanese Patent Unexamined Publication No. 2004-517345) was applied to one determined leg (hereinafter, referred to as a “treated leg”). The treated leg was covered with an 80 cm-long polypropylene bag type sealing enclosure member equipped with a check valve. Then, the member was filled with carbon dioxide from a carbon dioxide gas cylinder and stood still for ten minutes. The carbon dioxide concentration was set to 80% (800,000 ppm). No treatment was given to the other leg (hereinafter, referred to as a “non-treated leg”). The training was carried out only once, this time.\nEach subject allowed the treated leg to absorb carbon dioxide for ten minutes once a day as mentioned above by using the carbon dioxide supplying means for muscle strengthening of the present invention (by using a carbon dioxide external administration device as the carbon dioxide supplying means). Thereafter, the muscle strength of the quadriceps femoris and the muscle strength of the hamstrings were measured by using MyoretRZ-450.\nOn day 4 and later after the experiment was started, neither absorption of carbon dioxide nor stretching exercise on isometric torque of the quadriceps femoris was carried out. On day 7 after the experiment was started, the muscle strengths of the quadriceps femoris and the hamstrings were measured by using MyoretRZ-450."}, "[2]": {"test_system": "muscle strengths of the quadriceps femoris and the hamstrings", "test": "Promotion of muscle strengthening with no exercise load applied, three months", "format": "in vivo, human", "details": "month 3, no exercise load, 80% CO2 ten minutes at least once a week", "source_text": "Thirteen subjects (all males, aged from 27 to 43) participated in the experiment. In each subjects, the absorption aid 4 of carbon dioxide described in Example 5 in Patent Document 7 (Japanese Patent Unexamined Publication No. 2004-517345) was given to one determined leg (hereinafter, referred to as a “treated leg”). The treated leg was covered with an 80 cm-long polypropylene bag type sealing enclosure member equipped with a check valve. Then, carbon dioxide was filled in the member from a carbon dioxide gas cylinder and stood still for ten minutes. The carbon dioxide concentration was set to 80% (800,000 ppm). The treatment was carried out at least once a week for three months. No treatment was given to the other leg (hereinafter, referred to as a “non-treated leg”). Before and three months after the experiment was started, the muscle strengths of the treated leg and the non-treated leg were measured (the muscle strengths of the quadriceps femoris and the hamstrings were measured by using MyoretRZ-450)."}, "rat lower thigh muscle": {"test_system": "rat lower thigh muscle", "test": "Increase in amount of rat muscle with no exercise load applied, three months", "format": "in vivo, Wister rats", "source_text": "Nine male Wister rats (5-week old at the time when the experiment was started) were used.\nIn the CO2 group, the hair was removed from the right and left lower thighs of six rats under anesthesia. Then, the absorption aid 4 of carbon dioxide described in Example 5 in Patent Document 7 (Japanese Patent Unexamined Publication\nNo. 2004-517345) was applied to only the right lower thigh (hereinafter, referred to as a “treated limb”). Next, the rat lower body was covered with a polyethylene bag type sealing enclosure member provided with a hole through which the left hind limb comes out so that only the right hind limb absorbs carbon dioxide. Then, carbon dioxide was filled in the sealing enclosure member by using a carbon dioxide gas cylinder so as to inflate the sealing enclosure member. In order to always secure a sufficient amount of carbon dioxide in the sealing enclosure member, carbon dioxide was added at any time, so that the sealing enclosure member was filled with carbon dioxide for ten minutes. The carbon dioxide concentration inside the sealing enclosure member was set to 100%. […]\nThree months later, the rat body weights were measured and the muscle was collected from the right and left lower thighs. The muscle wet weight of the collected muscle was measured, followed by detecting growth a acceleration indicating proteins of muscle fibers, MyoD and Myogenin (see Atsuko HARA et al., “Expression of myosin heavy chain isoforms, myogenin and MyoD in the course of regeneration of skeletal muscle,” Journal of Health Sciences of Hiroshima University, Vol. 2 (1): 12-18, 2002), and IGF-IR [see Junichi SUZUKI et al., “Effect of endurance training with L-arginine supplementation on expression of IGF-1 receptor in rat skeletal muscles” Research for Winter Sports, (the Proceedings of Research and Education Center for Winter Sports, Hokkaido University of Education), Vol. 8 (1) 1-7, 2005], by Western blotting. The resultant bands were analyzed on the analysis software (NIH-Image) so as to quantify each growth acceleration indicating protein. […]"}, "grip strength": {"test_system": "grip strength", "test": "Promotion of kaatsu training effect, grip strength", "format": "in vivo, human", "experimental": "Two subjects participated in the experiment. The experiment was carried out according to Abe T. et al. (2006) Electromyographic responses of arm and chest muscle during bench press exercise with and without KAATSU. Int. J. Kaatsu Training Res. 2:15-18. The grip strengths of both hands of each subject were measured before the experiment was started. Next, the absorption aid 4 of carbon dioxide described in Example 5 in Patent Document 7 (Japanese Patent Unexamined Publication No. 2004-517345) was applied to the entire left arm of each subject, and the left arm was covered with an 80 cm-long polypropylene bag type sealing enclosure member equipped with a check valve. A cuff of blood pressure manometer was worn on the upper arm with the sealing enclosure member applied. Firstly, the upper arm was pressurized with a cuff pressure of 50 mmHg for 30 seconds. Next, the pressure was released once for 10 seconds, and then the upper arm was pressurized while gradually increasing the cuff pressure to 70 mmHg. When the cuff pressure reached 70 mmHg, the pressure was fixed. Then, carbon dioxide was filled in the sealing enclosure member from a carbon dioxide gas cylinder so as to inflate the sealing enclosure member. […]\nThree days after the experiment, the grip strength of both hands of each subject was measured."}, "[3]": {"details": "day 7, non-athletes, pre-ex defined as 100%"}, "[4]": {"details": "100% CO2 ten minutes twice a week"}},
  "data": [
    {"smiles": "O=C=O", "note": "[carbon dioxide]", "values": [
      {"measurement": "blood pressure and heart rate of the subjects during the absorption of carbon dioxide", "setting": "[1]; after exercise load, 80% CO2, ten minutes, treated leg", "result": "did not change"},
      {"measurement": "muscle strengthening of the quadriceps femoris in the treated leg", "setting": "[1]; day 7, all subjects, pre-ex defined as 100%, CO2 absorption stopped from day 4", "result": 20, "unit": "%"},
      {"measurement": "muscle strengthening of the hamstrings (no exercise load) in the treated leg", "setting": "[1]; day 7, all subjects, pre-ex defined as 100%, significant at P=5%", "result": "about 15%"},
      {"measurement": "muscle strengthening of the hamstrings (no exercise load) in the treated leg, non-athletes", "setting": "[1]; [3]", "result": "about 20%"},
      {"measurement": "muscle strengthening of the quadriceps femoris in the treated leg, non-athletes", "setting": "[1]; [3]", "result": "about 30%"},
      {"measurement": "muscle strengthening of the quadriceps femoris, treated leg compared with non-treated leg", "setting": "[1]; days 2 to 4 of the experiment, CO2 ten minutes once a day", "result": "promoted"},
      {"measurement": "recovery of the muscle strength of the quadriceps femoris, treated leg versus non-treated leg", "setting": "[1]; post-CO2, day of exercise load, 80% CO2, ten minutes", "result": "faster"},
      {"measurement": "muscle strengthening of the quadriceps femoris in the treated leg as compared with the non-treated leg", "setting": "[2]; P=1%", "result": "about 15%"},
      {"measurement": "muscle strengthening of the hamstrings in the treated leg as compared with the non-treated leg", "setting": "[2]; P=5%", "result": "about 15%"},
      {"measurement": "muscle wet weight per body weight, CO2 group as compared with CONTROL group", "setting": "rat lower thigh muscle; [4]", "result": "increase"},
      {"measurement": "muscle wet weight, treated leg as compared with non-treated leg in the CO2 group", "setting": "rat lower thigh muscle; [4]", "result": "remarkable increase"},
      {"measurement": "amount of growth acceleration indicating protein (MyoD, Myogenin, IGF-IR) extracted from the muscle, CO2 group versus CONTROL group", "setting": "rat lower thigh muscle; Western blotting", "result": "increased"},
      {"measurement": "muscle strengthening rate (grip strength) compared with only pressurizing", "setting": "grip strength; day 3 after kaatsu training, treated arm versus non-treated arm", "result": "two-times"},
      {"measurement": "muscle pain and fatigue accompanying kaatsu training", "setting": "grip strength; left hand with carbon dioxide absorption versus only pressurizing and exercise", "result": "reduced"}
    ]}
  ]
}
